Assay results from patent publication US20230233650A1, “NOVEL FATTY ACID MODIFIED UROCORTIN 2 DERIVATIVES AND THE USES THEREOF” (Novo Nordisk A/S, priority 2021, published 2023).
Numbered stars: 1 amine (or outer) side, 2 acyl side, 3 side chain; on linkers, the order of the positions; unused ones are H or OH. Side chains are listed from the residue outwards. Peptide text beside a SMILES is read from it. * marks the point of attachment. C20 diacid = O=C(O)CCCCCCCCCCCCCCCCCCC(=O)*; γGlu = O=C(O)[C@H](CCC(=O)[*:2])N[*:1]; AEEA = NCCOCCOCC(=O)O

Biological target: T1, Human CRF1 receptor (Homo sapiens, UniProt P34998)
T1 construct: host or cells: CHO-K1 (membrane preparation)
T1 sequence (P34998 24-415): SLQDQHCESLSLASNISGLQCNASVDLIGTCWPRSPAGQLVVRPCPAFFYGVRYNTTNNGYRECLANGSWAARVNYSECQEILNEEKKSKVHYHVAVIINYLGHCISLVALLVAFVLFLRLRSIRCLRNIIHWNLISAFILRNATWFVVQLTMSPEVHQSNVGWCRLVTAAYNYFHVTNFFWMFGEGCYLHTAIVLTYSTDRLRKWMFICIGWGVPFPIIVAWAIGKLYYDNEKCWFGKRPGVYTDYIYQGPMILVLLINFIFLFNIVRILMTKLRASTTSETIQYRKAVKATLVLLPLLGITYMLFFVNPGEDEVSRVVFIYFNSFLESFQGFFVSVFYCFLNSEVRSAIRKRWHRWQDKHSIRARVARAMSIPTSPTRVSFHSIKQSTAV
Assay: CRF1 receptor CHO cell β-Arrestin recruitment assay (PathHunter)
Type: cell-based
Conditions: CHO-K1 cells, 0.1% ovalbumin
Method: The purpose of this investigation was to test the in vitro agonistic activity (potency) of the compounds of the invention to receptor subtype CRF1 and CRF2. […] The native, human Ucn1 and Ucn2 peptides were included as references. Assay principle: Activated G-protein coupled receptors (GPCRs) can interact with the Arrestin family of signalling proteins. The potency of peptides for CRF induced Arrestin recruitment is determined using the PathHunter Enzyme Fragment Complementation approach substantially as described in von […] et al., FASEB J., 2007, 3819, 26 and Hamdouchi et al., J. Med. Chem., 2016, 59, 10891-10916. The target GPCR is tagged with the small fragment of β-gal called ProLinkTM, a low affinity version of enzyme donor and co-expressed in cells stably expressing β-Arrestin tagged with enzyme acceptor. Activation of the GPCR stimulates binding of β-Arrestin to the ProLink-tagged GPCR, forcing complementation of ProLink and enzyme acceptor, resulting in the formation of an active β-gal enzyme. The resulting active enzyme hydrolyses substrate present in the PathHunter detection reagents to generate light. […] Plates were first incubated for 90 minutes in a 37° C., 5% CO2 incubator and then 5 μL of PathHunter detection reagent was added (DiscoveRx, 93-0001) and the plates were incubated at room temperature for 60 minutes after which the luminescence signal was measured (BMG […]). […]

SMILES	EC50
CC[C@H](C)[C@H](NC(=O)[C@H](CCC(=O)O)NC(=O)[C@H](C)NC(=O)[C@H](CC(N)=O)NC(=O)[C@@H](NC(=O)[C@@H](NC(=O)[C@H](C)NC(=O)[C@H](CCC(N)=O)NC(=O)[C@H](CCC(=O)O)NC(=O)[C@H](CCCNC(=N)N)NC(=O)[C@H](C)NC(=O)[C@H](C)NC(=O)[C@H](CCCNC(=N)N)NC(=O)[C@H](C)NC(=O)[C@H](CCCNC(=N)N)NC(=O)[C@H](C)NC(=O)[C@H](CCC(N)=O)NC(=O)[C@H](CCC(=O)O)NC(=O)[C@H](CC(C)C)NC(=O)[C@H](CC(C)C)NC(=O)[C@@H](NC(=O)[C@H](CCC(N)=O)NC(=O)[C@H](CC(C)C)NC(=O)[C@H](CC(C)C)NC(=O)CNC(=O)[C@@H](NC(=O)[C@@H]1CCCN1C(=O)[C@@H](NC(=O)[C@H](CC(=O)O)NC(=O)[C@H](CC(C)C)NC(=O)[C@H](CO)NC(=O)[C@H](CC(C)C)NC(=O)[C@@H](NC(=O)[C@@H](NC(=O)[C@@H](N)CCCCNC(=O)COCCOCCNC(=O)COCCOCCNC(=O)CC[C@H](NC(=O)CC[C@H](NC(=O)CC[C@H](NC(=O)CCCCCCCCCCCCCCCCCCC(=O)O)C(=O)O)C(=O)O)C(=O)O)[C@@H](C)CC)C(C)C)C(C)C)[C@@H](C)CC)[C@@H](C)CC)[C@@H](C)O)[C@@H](C)O)C(=O)N[C@@H](CC(C)C)C(=O)N[C@@H](C)C(=O)N[C@@H](CCC(=O)O)C(=O)N[C@H](C(N)=O)C(C)C [Compound 3] (H-K([AEEA-AEEA-γGlu-γGlu-γGlu-C20 diacid])IVLSLDVPIGLLQILLEQARARAAREQATTNAEILAEV-NH2)	> 10 µM
CC[C@H](C)[C@H](NC(=O)[C@H](CCC(=O)O)NC(=O)[C@H](C)NC(=O)[C@H](CC(N)=O)NC(=O)[C@@H](NC(=O)[C@@H](NC(=O)[C@H](C)NC(=O)[C@H](CCC(N)=O)NC(=O)[C@H](CCC(=O)O)NC(=O)[C@H](CCCNC(=N)N)NC(=O)[C@H](C)NC(=O)[C@H](C)NC(=O)[C@H](CCCNC(=N)N)NC(=O)[C@H](C)NC(=O)[C@H](CCCNC(=N)N)NC(=O)[C@H](C)NC(=O)[C@H](CCC(N)=O)NC(=O)[C@H](CCC(=O)O)NC(=O)[C@H](CC(C)C)NC(=O)[C@H](CC(C)C)NC(=O)[C@@H](NC(=O)[C@H](CCC(N)=O)NC(=O)[C@H](CC(C)C)NC(=O)[C@H](CC(C)C)NC(=O)CNC(=O)[C@@H](NC(=O)[C@@H]1CCCN1C(=O)[C@@H](NC(=O)[C@H](CC(=O)O)NC(=O)[C@H](CC(C)C)NC(=O)[C@H](CO)NC(=O)[C@H](CC(C)C)NC(=O)[C@@H](NC(=O)[C@@H](NC(=O)[C@@H](N)CCCCNC(=O)COCCOCCNC(=O)COCCOCCNC(=O)CC[C@H](NC(=O)CC[C@H](NC(=O)CC[C@H](NC(=O)CCCCCCCCCCCCCCCCCCC(=O)O)C(=O)O)C(=O)O)C(=O)O)[C@@H](C)CC)C(C)C)C(C)C)[C@@H](C)CC)[C@@H](C)CC)[C@@H](C)O)[C@@H](C)O)C(=O)N[C@@H](CC(C)C)C(=O)N[C@@H](CCC(=O)O)C(=O)N[C@@H](CCCNC(=N)N)C(=O)N[C@H](C(N)=O)C(C)C [Compound 4] (H-K([AEEA-AEEA-γGlu-γGlu-γGlu-C20 diacid])IVLSLDVPIGLLQILLEQARARAAREQATTNAEILERV-NH2)	> 10 µM
